Like-named read-outs stand apart in the source and are kept apart here.
Key:
BACE1 [1] = molecular target: T1, BACE1 (Homo sapiens (Human), UniProt P56817); assay: BACE1 AlphaScreen assay (displacement of biotinylated BACE1 binding site probe); conditions: read-out: BACE1 AS IC50
Procedure: (§1) BACE1 activity can be assessed in an AlphaScreen® assay. Compounds to be assessed (e.g. compounds as described in the above examples) are serially diluted 1:4 in DMSO, then plated by diluting 10 μL of compound with 40 μl of assay buffer (1×PBS, 0.01% Tween-20, pH 7.0, 0.05% BSA). The diluted compound is transferred (4 μL per well) to a 386 well assay plate and 4 μL of BACE1 enzyme ([…]) is added and incubated for 15 minutes. This assay uses a probe that is a BACE1 binding sight ligand linked to biotin, which can be displaced by test compound dependent on compound binding affinity. This of biotinylated probe (4 μL) is added and incubated for 1 hour, followed with 4 μL of donor and acceptor bead mixture and incubated for 2 hours. The fluorescent signal is read on a plate reader and the value as a function of compound concentration is used to determine the IC50. Compounds are also assessed for BACE1 and Cathepsin D activity using an FP Assay. Compounds to be assessed (e.g. compounds as described in the above examples) are serially diluted 1:3 with DMSO and each concentration point is transferred to a 96 well plate, 6 μL per well, followed by addition of 194 μL of assay buffer (100 mM sodium acetate, pH 4.5 with 0.001% Tween-20). A 10 μL compound sample from this plate is transferred to a well of a 384 well plate and combined with 10 μL per well of BACE1 enzyme (0.3 nM in assay buffer) or Cathepsin D enzyme (1.8 nM in assay buffer) and the plate is incubated at room temperature for 30 minutes.

BACE1 [2] = molecular target: T1, BACE1; assay: BACE1 FP assay; format: biochemical; conditions: pH 4.5
Procedure: as §1

[3] = system: BACE1 inhibition in HEKp293 cells transfected with APP751 gene (SWE293); assay: SWE293 cellular assay: reduction of Aβ peptide production, ELISA; format: cell-based; conditions: Homo sapiens, read-out: SWE293 ED50
Procedure: BACE1 inhibition is also assessed in a cellular assay. HEKp293 cells transfected with APP751 gene (SWE293, American Type Culture Collection CRL-1563) are used to assess compounds for reduction in levels of Aβ peptide production. SWE293 cell medium is DMEM supplemented with 10% fetal bovine serum and 2 mM L-glutamine, 1.0 mM sodium pyruvate, 25 mM Hepes Buffer, 0.4 mg/mL geneticin (G418, Gibco BRL 860-181IIJ). Cells are maintained diluting 1:10 for 4 days in T-150 flask and 35 mL of cell media. For plating, cells are rinsed with 5 mL of 1×PBS, trypsinized with 4 mL of 0.05% Tripsin for 1 minute, and 12 mL of cell media is added. These are centrifuged at 1000 rpm for 4 minutes and the media aspirated, then 8 mL of media per flask is added. Based on cell count, appropriate amounts of cell and cell media are combined, and 180 μl per well are plated (96 well) and the plates are incubated overnight at 37° C., 5% CO2. Compounds to be tested are serially diluted 1:3 in DMSO and twice in media (without G418) in V-bottom plates and incubated at room temperature. Plated cells are washed with media, 3×50 μL per well and 17 μL per well of appropriate dilution of compound is added. Plates are incubated for 2 hours, and the wash steps, compound addition and incubation are repeated. Sample is transferred to capture plate (prepared with 266 antibody, see e.g. Johnson-Wood et al., PNAS February 1997, 94: 1550-1555), along with a standard curve of Aβ-40. ELISA assay is used to assess Aβ levels, washing with TBS, 0.05% Tween20 pH 7.5, then adding 1.3 mg/mL 3D6 antibody 1:900 in specimen diluents with thimericol is added (100 μl per well) and incubated for 1 hour. Wash step is repeated and Streptavidin-AP diluted 1:1000 in specimen diluents with thimerisol is added (100 μL per well) and incubated for 1 hour. Wash step is repeated and fluorescent substrate is added, 100 μL per well and incubated for 10 minutes followed by reading the fluorescent signal on a plate reader.

[4] = dose at which Aβ level is reduced by 50%, HEKp293 SWE293 cells

T1 sequence (P56817 46-501): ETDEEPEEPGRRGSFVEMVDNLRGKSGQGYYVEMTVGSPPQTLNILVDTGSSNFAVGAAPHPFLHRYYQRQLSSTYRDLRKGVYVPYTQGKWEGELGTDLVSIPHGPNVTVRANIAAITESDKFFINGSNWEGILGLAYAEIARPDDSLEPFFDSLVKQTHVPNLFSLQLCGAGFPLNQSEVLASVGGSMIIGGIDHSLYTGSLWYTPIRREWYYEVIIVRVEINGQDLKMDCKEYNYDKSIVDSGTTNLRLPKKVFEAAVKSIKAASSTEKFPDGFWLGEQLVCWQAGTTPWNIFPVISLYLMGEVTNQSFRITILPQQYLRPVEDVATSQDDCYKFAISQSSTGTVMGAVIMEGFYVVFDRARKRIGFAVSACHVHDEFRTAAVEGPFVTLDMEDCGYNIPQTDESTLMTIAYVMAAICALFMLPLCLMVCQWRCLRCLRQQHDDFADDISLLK

Row | Structure (SMILES) | IC50 (BACE1 [1]) | IC50 (BACE1 [2]) | IC50 [3, 4] | IC50 [3]
1 | C[C@@]1(c2cc(NC(=O)C3CC3)ccc2F)CC2(CCC(F)(F)CC2)OC(N)=N1 [Compound 9-134, (S)—N-(3-(2-amino-9,9-difluoro-4-methyl-1-oxa-3-azaspiro[5.5]undec-2-en-4-yl)-4-fluorophenyl)cyclopropanecarboxamide] | 801 nM | 2.33 µM | 882 nM | –
2 | C[C@@]1(c2cc(NC(=O)c3ccc(C#N)cn3)ccc2F)N=C(N)OC2(CCC2)C1(F)F [Compound 9-163, (S)—N-(3-(6-amino-9,9-difluoro-8-methyl-5-oxa-7-azaspiro[3.5]non-6-en-8-yl)-4-fluorophenyl)-5-cyanopicolinamide] | 13400 nM | 38.1 µM | – | > 30000 nM
3 | C[C@@]1(c2cc(NC(=O)c3ccc(C4CC4)cn3)ccc2F)CC2(CCC(F)(F)CC2)OC(N)=N1 [Compound 9-137, (S)—N-(3-(2-amino-9,9-difluoro-4-methyl-1-oxa-3-azaspiro[5.5]undec-2-en-4-yl)-4-fluorophenyl)-5-cyclopropylpicolinamide] | 17 nM | 1.83 µM | 88 nM | –
4 | C[C@@]1(c2cc(NC(=O)c3ccc(F)cn3)ccc2F)N=C(N)OC2(CCOCC2)C1(F)F [Compound 9-156, (S)—N-(3-(2-amino-5,5-difluoro-4-methyl-1,9-dioxa-3-azaspiro[5.5]undec-2-en-4-yl)-4-fluorophenyl)-5-fluoropicolinamide] | > 30000 nM | > 30 µM | – | > 30000 nM
5 | CC#Cc1cncc(-c2csc(C3(C)CC4(COC4)SC(N)=N3)c2)c1 (centres unmarked) [Compound 8-112, 8-methyl-8-(4-(5-(prop-1-ynyl)pyridin-3-yl)thiophen-2-yl)-2-oxa-5-thia-7-azaspiro[3.5]non-6-en-6-amine] | 17 nM | 0.227 µM | 222 nM | –
6 | C[C@@]1(c2cc(/C=C/c3ccc(Cl)cc3)ccc2F)CC2(CCC2)OC(N)=N1 [Compound 12-179, (S,E)-8-(5-(4-chlorostyryl)-2-fluorophenyl)-8-methyl-5-oxa-7-azaspiro[3.5]non-6-en-6-amine] | 510 nM | 4.64 µM | 1340 nM | –
7 | C[C@@]1(c2cc(/C=C/c3ccc(F)cc3)ccc2F)CC2(CCC2)OC(N)=N1 [Compound 12-177, (S,E)-8-(2-fluoro-5-(4-fluorostyryl)phenyl)-8-methyl-5-oxa-7-azaspiro[3.5]non-6-en-6-amine] | 1160 nM | 21.7 µM | – | 1210 nM
8 | COc1cc(Cl)ccc1C(=O)Nc1ccc(F)c([C@]2(C)CC3(CCC3)OC(N)=N2)c1 [Compound 9-140, (S)—N-(3-(6-amino-8-methyl-5-oxa-7-azaspiro[3.5]non-6-en-8-yl)-4-fluorophenyl)-4-chloro-2-methoxybenzamide] | 101 nM | 9.11 µM | – | 342 nM
9 | C[C@@]1(c2cc(Nc3ncnc4cc(Cl)ccc34)ccc2F)CC2(CCC2)OC(N)=N1 [Compound 11-173, (S)-8-(5-(7-chloroquinazolin-4-ylamino)-2-fluorophenyl)-8-methyl-5-oxa-7-azaspiro[3.5]non-6-en-6-amine] | – | 8.55 µM | 687 nM | –
10 | C[C@@]1(c2cc(NCc3ccc(F)cn3)ccc2F)CC2(CCC2)OC(N)=N1 [Compound 10-169, (S)-8-(2-fluoro-5-((5-fluoropyridin-2-yl)methylamino)phenyl)-8-methyl-5-oxa-7-azaspiro[3.5]non-6-en-6-amine] | 3720 nM | 179 µM | – | 5610 nM
11 | C[C@@]1(c2cc(NC(=O)c3ccc(C(F)(F)F)cn3)ccc2F)CC2(CCC(F)(F)CC2)OC(N)=N1 [Compound 9-132, (S)—N-(3-(2-amino-9,9-difluoro-4-methyl-1-oxa-3-azaspiro[5.5]undec-2-en-4-yl)-4-fluorophenyl)-5-(trifluoromethyl)picolinamide] | 6 nM | – | – | 11 nM
12 | CC1(c2cc(NC(=O)c3ccc(F)cn3)ccc2F)CC2(CCCCC2)SC(N)=N1 (centres unmarked) [Compound 9-142, N-(3-(2-amino-4-methyl-1-thia-3-azaspiro[5.5]undec-2-en-4-yl)-4-fluorophenyl)-5-fluoropicolinamide] | – | – | 12 nM | –

— patent publication US9493485B2, “Spirocyclic dihydro-thiazine and dihydro-oxazine BACE inhibitors, and compositions and uses thereof” (Imago Pharmaceuticals, Inc., priority 2012, dated 2016)
